Results taken from patent EP3175850B1, “PHARMACEUTICAL COMPOSITION FOR ALLEVIATING OR TREATING GOUT AND USES THEREOF” (Industrial Technology Research Institute, priority 2014, dated 2016).

Columns and labels:
Type in all cases: in vivo
[1] = system: neutrophil cell (CD45^+/Ly6G^+ cells); assay: Mouse air pouch model (MSU crystal-induced acute gouty arthritis): neutrophil cell density in exudate by flow cytometry; settings: Example 4, Table 3; for INHIBITION RATE (neutrophil cell density): CD45^+/Ly6G^+ cells, vs blank control, topical 100 mg paste/mouse (5 mg total active); for AVERAGE VALUES (normalized cell density, neutrophil CD45^+/Ly6G^+ cells): topical 100 mg paste/mouse (5 mg total active) 15 hours prior to MSU, exudate 5 hours after MSU, blank control 360
Protocol: (§1) Mouse Air pouch model: this mouse model may be referenced to the methods and the experimental details as in the published article "Role of S100A8 and S100A9 in neutrophil recruitment in response to monosodium urate monohydrate crystals in the air-pouch model of acute gouty arthritis", Arthritis Rheum 2003 Aug, 48(8):2310-20.
(§2) Before the experiment, the mice are shaved to remove back hair. At day 0 sterile filtered air (2 ml/per mouse) is injected through 0.22 µm microfilter to the back of each mouse subcutaneously, so that a pseudosynovial cavity is formed in each mouse. At day 3, an air booster (3 ml/mouse) is again given to each mouse, so that the air pouch is maintained round. Later, the mice are weighed and grouped so that the average weight of the mice in each group is about the same. At day 6 monosodium urate (MSU) crystal suspension (5 mg in 2 ml/per mouse) is injected into the air pouch. Topical application of the paste (100 mg paste/per mouse) is administrated 15 hours prior to MSU stimulation. At a specific time (5 hours) after the injection of MSU, the mice were euthanized with an excess of carbon dioxide, 2 ml PBS per mouse is injected into the air pouch, and the air pouch is carefully cut to collect the exudate. The collected exudate is subjected to the centrifugation at 1,000 rpm, 4°C for 5 minutes, and the supernatant is then placed in a 96-well plate and stored at -20°C. An ELISA kit (purchased from R&D Systems) is used to analyze the contents of IL-1β and IL-6 in the exudate. The precipitate is resuspended and reacted with 1 ml red blood cell lysis buffer (RBC lysis buffer) for one minute to remove the red blood cells, followed by adding 1 ml PBS to terminate the reaction, centrifuged at 1,000 rpm, 25°C for 5 minutes, and the supernatant is discarded. The precipitate is then resuspended in 1 ml PBS as the cell suspension and the cell suspension is filtered by filter membrane (BD Falcon 100 µm Nylon filter strainer) and the filtered cell suspension is dispensed into several tubes (0.25 ml/tube) for subsequent cell counting or for labelling with various differentiation antigen markers (such as cluster of differentiation (CD) markers). The flow cytometry is used for cell counting of the various cells.
(§3) In order to investigate the anti-gout efficacy of AG02-RA1 and AG04-RA1, either used alone or in combination, the experiments are performed to test AG02-RA1 alone, AG04-RA1 alone and the combination(s) of AG02-RA1 :AG04-RA1 in the ratio of 50:50 (Composition Nos. 1, 2 and 3 as shown in Table 1). The total weight of the content of AG02-RA1 and/or AG04-RA1 is 5 mg, accounting for 5 % of the total weight of the test sample paste composition. […]

[2] = system: leukocyte cell (CD45^+ cells); assay: Mouse air pouch model (MSU crystal-induced acute gouty arthritis): leukocyte cell density in exudate by flow cytometry; settings: for AVERAGE VALUES (normalized leukocyte cell density): Example 4, Table 2, topical 100 mg paste/mouse (5 mg total active) 15 hours prior to MSU, exudate 5 hours after MSU, blank control 803; for INHIBITION RATE (leukocyte cell density): Example 4, Table 2, vs blank control, topical 100 mg paste/mouse (5 mg total active) 15 hours prior to MSU, 5 hours after MSU
Protocol: as §1, §2, §3

interleukin-6 (mIL-6) = assay: Mouse air pouch model (MSU crystal-induced): IL-6 content of exudate by ELISA; settings: Example 4, Figure 4; topical 100 mg paste/mouse (5 mg total active) 15 hours prior to MSU; exudate 5 hours after MSU
Protocol: as §1
(§4) Before the experiment, the mice are shaved to remove back hair. At day 0 sterile filtered air (2 ml/per mouse) is injected through 0.22 µm microfilter to the back of each mouse subcutaneously, so that a pseudosynovial cavity is formed in each mouse. At day 3, an air booster (3 ml/mouse) is again given to each mouse, so that the air pouch is maintained round. Later, the mice are weighed and grouped so that the average weight of the mice in each group is about the same. At day 6 monosodium urate (MSU) crystal suspension (5 mg in 2 ml/per mouse) is injected into the air pouch. Topical application of the paste (100 mg paste/per mouse) is administrated 15 hours prior to MSU stimulation. At a specific time (5 hours) after the injection of MSU, the mice were euthanized with an excess of carbon dioxide, 2 ml PBS per mouse is injected into the air pouch, and the air pouch is carefully cut to collect the exudate. The collected exudate is subjected to the centrifugation at 1,000 rpm, 4°C for 5 minutes, and the supernatant is then placed in a 96-well plate and stored at -20°C. […]

interleukin-1β (mIL-1β) = assay: Mouse air pouch model (MSU crystal-induced): IL-1β content of exudate by ELISA; settings: Example 4, Figure 3; topical 100 mg paste/mouse (5 mg total active) 15 hours prior to MSU; exudate 5 hours after MSU
Protocol: as §1, §4

Compound | INHIBITION RATE (neutrophil cell density) [1] [%] | AVERAGE VALUES (normalized cell density, neutrophil CD45^+/Ly6G^+ cells) [1] [cells*10^3/ml] | AVERAGE VALUES (normalized leukocyte cell density) [2] [cells* 10^3/ml] | INHIBITION RATE (leukocyte cell density) [2] [%] | inhibition rate of interleukin-6 secretion (interleukin-6 (mIL-6)) [%] | inhibition rate of interleukin-1β secretion (interleukin-1β (mIL-1β)) [%]
3,7,11,15(17)-cembratetraene-16,2:19,6-diolide-3484-37-5(3E,12E)-3,12-dimethyl-8-methylene-6,18-dioxa-tricyclo[14.2.1.0.5,9]nonadeca-3,12,16(19)-triene-7,17-dione [AG02-RA1] | 63 | 133 | 1609 | -100 | – | –
CC(=O)OCC=Cc1ccc(OC(C)=O)cc1 [AG04-RA1, 4-(3-acetoxy-propenyl)-phenyl acetate] | 43 | 205 | 670 | 17 | > 50 | > 50
